# Laboratory results taken from patent US12252701B2, “Chimeric antigen receptor T cell therapy” (KITE PHARMA, INC., priority 2020, dated 2025).
# Like-named read-outs stand apart in the source and are kept apart here.
# Assays:
# [1] = Clinical pharmacokinetic data converted to in vitro concentrations; settings: human, in vivo
# Excerpt: Given the different potencies of the JAK inhibitors and different pharmacokinetic properties for each drug, it was sought to test each drug at a relevant range of physiological concentrations based on clinical dosing and reported pharmacokinetic data from repeat dose studies. Reported Cmax values in patient sera were converted to in vitro concentrations and adjusted for reported plasma protein binding.
# Nalm-6 luc = assay: CAR-T cell killing assay (luciferase viability of tumor cells)
# CAR-T cells = assay: CAR-T cell expansion assay (KIP-1 or CD3/CD28 stimulation); settings: for % viability: CD3/CD28
# [2] = cited from earlier work
# [3] = system: NALM6.GFP.LUC.CD19 target cells; assay: Serial killing assay; format: cell-based, human
# Protocol: CD19 CAR-T cells were thawed in RPMI media supplemented with HEPES, Penicillin/Streptomycin/L-Glutamine and 10% FBS and rested overnight. The following day, drugs were serially diluted and prepared in 96-well plates. Rested T cells were counted and normalized so that 25,000 or 8,333 T cells were plated with 25,000 NALM6.GFP.LUC.CD19 target cells (1:1 or 1:3 Effector:Target ratio) in the prepared 96-well plates. At 16 hour post-incubation and every 3-4 days, T cell killing of targets was measured via luciferase detection. D-luciferin substrate was added to the co-culture wells at a final concentration of 0.14 mg/mL and plates were incubated at 37° C. in the dark for 10 minutes. Luminescent signal was read immediately after in a VarioSkan™ LUX microplate reader. T cell-mediated cytotoxicity was calculated as follows: % Cytotoxicity=[1−luciferase signal of (sample of interest/target alone control)]*100. Afterwards, co-cultures were stained with LIVE/DEAD and antibodies against CD4, CD8 and KIP-1 and then washed. Cells were then analyzed and quantified via the Attune NxT flow cytometer. T cells were then repeatedly stimulated with fresh 25,000 target cells, and this process was repeated every 3-4 days.
# CD19 CAR T cells = assay: CAR T cell cytokine production (Luminex) under CD19 K562, KIP-1 or CD2/3/28 stimulation; settings: for IC50: Homo sapiens, T-cell
# Protocol: Cryopreserved healthy donor CLP CD19 CAR T cells were thawed and rested overnight in 100 U/ml of IL-2 at 1×10^6/ml. 2.5×10^5 CD19 CART cells were plated in 96-well RB plate wells in a total volume of 200 μl of R10 culture media. […] CD19 CART cell cytokine production was allowed to proceed through 72 hours in the presence of stimulator and JAKi or steroid. Following 72 h of culture, 100 μl of the cell supernatant of each well were harvested and stored at −80° C. for later Luminex/Bioplex-200 cytokine analysis. Briefly, stored supernatants were thawed and 50 μl of the sample was assayed for cytokines using a ThermoFisher Procarta Plex 19-plex human cytokine assay kit (ThermoFisher, Carlsbad, CA) according to kit manufacturer's instructions and detected using a BioRad Bioplex-200 instrument. The data points generated from the luminex cytokine assay were transferred to a GraphPad PRISM IC50 dose-response curve analysis to generate IC50 or potency values for the JAKi's and steroids tested.
# [4] = E:T ratio 1:3, all doses tested
compound,measurement,setting,value
O=C(Nc1nc2cccc(-c3ccc(CN4CCS(=O)(=O)CC4)cc3)n2n1)C1CC1 [filgotinib],PPB adj. in Vitro concentration,[1],1.28 µM
same,clinically relevant dose level (in vitro concentration),[1],~1 µM
same,Mean tumor cell death (%),"Nalm-6 luc; E:T ratio 1:1, dose 250 nM",96.89%
same,Mean tumor cell death (%),"Nalm-6 luc; E:T ratio 1:1, dose 500 nM",97.54%
same,Mean tumor cell death (%),"Nalm-6 luc; E:T ratio 1:1, dose 1000 nM",92.04%
same,Mean tumor cell death (%),"Nalm-6 luc; E:T ratio 1:3, dose 250 nM",55.79%
same,Mean tumor cell death (%),"Nalm-6 luc; E:T ratio 1:3, dose 500 nM",48.50%
same,Mean tumor cell death (%),"Nalm-6 luc; E:T ratio 1:3, dose 1000 nM",35.36%
same,Mean tumor cell death (%),"Nalm-6 luc; E:T ratio 1:9, dose 250 nM",20.47%
same,Mean tumor cell death (%),"Nalm-6 luc; E:T ratio 1:9, dose 500 nM",14.82%
same,Mean tumor cell death (%),"Nalm-6 luc; E:T ratio 1:9, dose 1000 nM",9.49%
same,% viability,"CAR-T cells; dose 500 nM, day 4",58.7%
same,% viability,"CAR-T cells; dose 500 nM, day 8",65.7%
same,% viability,"CAR-T cells; dose 500 nM, day 12",84.5%
same,% viability,"CAR-T cells; dose 1000 nM, day 4",73.1%
same,% viability,"CAR-T cells; dose 1000 nM, day 8",70.9%
same,% viability,"CAR-T cells; dose 1000 nM, day 12",81.6%
same,effect on T cell expansion,CAR-T cells; at the doses tested (Table 40),little to no effect
same,Cmax,"[2]; clinical dosing, patient sera, repeat dose studies",1200 ng/mL
same,Protein binding,"[2]; plasma protein binding, reported",~42%
same,T-cell counts,[3]; E:T ratio 1:1,increased T-cell counts in a dose-dependent manner
same,serial killing,[3]; E:T ratio 1:1,enhanced serial killing
same,T-cell counts,[3]; [4],no negative impacts were observed
same,serial killing,[3]; [4],no negative impacts
same,suppression of cytokine production from CAR T cells (breadth and magnitude),CD19 CAR T cells,less effective in the breadth of cytokines suppressed and its potency to suppress particular cytokines
same,"Suppression of cytokine production, GMCSF (IC50)","CD19 CAR T cells; CD3/CD28 stimulation, 72 h",Suppress
same,IC50,"CD19 CAR T cells; 72 h, read-out: Suppression of cytokine production, GMCSF (IC50), K562-CD19 stimulation, 72 h",> 10 µM
same,IC50,"CD19 CAR T cells; 72 h, read-out: Suppression of cytokine production, GMCSF (IC50), KIP-1 stimulation, 72 h",6.44 µM
same,IC50,"CD19 CAR T cells; 72 h, read-out: Suppression of cytokine production, GzB (IC50), CD3/CD28 stimulation, 72 h",7.65 µM
same,IC50,"CD19 CAR T cells; 72 h, read-out: Suppression of cytokine production, GzB (IC50), K562-CD19 stimulation, 72 h",> 10 µM
same,IC50,"CD19 CAR T cells; 72 h, read-out: Suppression of cytokine production, GzB (IC50), KIP-1 stimulation, 72 h",> 10 µM
same,IC50,"CD19 CAR T cells; 72 h, read-out: Suppression of cytokine production, IFNg (IC50), CD3/CD28 stimulation, 72 h",> 10 µM
same,IC50,"CD19 CAR T cells; 72 h, read-out: Suppression of cytokine production, IFNg (IC50), K562-CD19 stimulation, 72 h",> 10 µM
same,IC50,"CD19 CAR T cells; 72 h, read-out: Suppression of cytokine production, IFNg (IC50), KIP-1 stimulation, 72 h",> 10 µM
same,IC50,"CD19 CAR T cells; 72 h, read-out: Suppression of cytokine production, IL-2Ra (IC50), CD3/CD28 stimulation, 72 h",1.89 µM
same,IC50,"CD19 CAR T cells; 72 h, read-out: Suppression of cytokine production, IL-2Ra (IC50), K562-CD19 stimulation, 72 h",4.82 µM
same,IC50,"CD19 CAR T cells; 72 h, read-out: Suppression of cytokine production, IL-2Ra (IC50), KIP-1 stimulation, 72 h",0.277 µM
same,IC50,"CD19 CAR T cells; 72 h, read-out: Suppression of cytokine production, IL-6 (IC50), CD3/CD28 stimulation, 72 h",1.71 µM
same,IC50,"CD19 CAR T cells; 72 h, read-out: Suppression of cytokine production, IL-6 (IC50), KIP-1 stimulation, 72 h",0.716 µM
same,IC50,"CD19 CAR T cells; 72 h, read-out: Suppression of cytokine production, IL-8 (IC50), CD3/CD28 stimulation, 72 h",> 10 µM
same,IC50,"CD19 CAR T cells; 72 h, read-out: Suppression of cytokine production, IL-8 (IC50), K562-CD19 stimulation, 72 h",0.543 µM
same,IC50,"CD19 CAR T cells; 72 h, read-out: Suppression of cytokine production, IL-8 (IC50), KIP-1 stimulation, 72 h",0.564 µM
same,IC50,"CD19 CAR T cells; 72 h, read-out: Suppression of cytokine production, IL-10 (IC50), CD3/CD28 stimulation, 72 h",2.01 µM
same,IC50,"CD19 CAR T cells; 72 h, read-out: Suppression of cytokine production, IL-10 (IC50), K562-CD19 stimulation, 72 h",0.397 µM
same,IC50,"CD19 CAR T cells; 72 h, read-out: Suppression of cytokine production, IL-10 (IC50), KIP-1 stimulation, 72 h",0.191 µM
same,IC50,"CD19 CAR T cells; 72 h, read-out: Suppression of cytokine production, MCP-1 (IC50), CD3/CD28 stimulation, 72 h",0.563 µM
same,IC50,"CD19 CAR T cells; 72 h, read-out: Suppression of cytokine production, MCP-1 (IC50), K562-CD19 stimulation, 72 h",0.858 µM
same,IC50,"CD19 CAR T cells; 72 h, read-out: Suppression of cytokine production, MCP-1 (IC50), KIP-1 stimulation, 72 h",0.559 µM
same,IC50,"CD19 CAR T cells; 72 h, read-out: Suppression of cytokine production, MIG (IC50), CD3/CD28 stimulation, 72 h",> 10 µM
same,IC50,"CD19 CAR T cells; 72 h, read-out: Suppression of cytokine production, MIG (IC50), K562-CD19 stimulation, 72 h",1.57 µM
same,IC50,"CD19 CAR T cells; 72 h, read-out: Suppression of cytokine production, MIG (IC50), KIP-1 stimulation, 72 h",1.38 µM
same,IC50,"CD19 CAR T cells; 72 h, read-out: Suppression of cytokine production, MIP-1a (IC50), CD3/CD28 stimulation, 72 h",> 10 µM
same,IC50,"CD19 CAR T cells; 72 h, read-out: Suppression of cytokine production, MIP-1a (IC50), K562-CD19 stimulation, 72 h",> 10 µM
same,IC50,"CD19 CAR T cells; 72 h, read-out: Suppression of cytokine production, MIP-1a (IC50), KIP-1 stimulation, 72 h",> 10 µM
same,IC50,"CD19 CAR T cells; 72 h, read-out: Suppression of cytokine production, MIP-1b (IC50), CD3/CD28 stimulation, 72 h",> 10 µM
same,IC50,"CD19 CAR T cells; 72 h, read-out: Suppression of cytokine production, MIP-1b (IC50), K562-CD19 stimulation, 72 h",9.82 µM
same,IC50,"CD19 CAR T cells; 72 h, read-out: Suppression of cytokine production, MIP-1b (IC50), KIP-1 stimulation, 72 h",> 10 µM
same,IC50,"CD19 CAR T cells; 72 h, read-out: Suppression of cytokine production, Perforin (IC50), CD3/CD28 stimulation, 72 h",5.46 µM
same,IC50,"CD19 CAR T cells; 72 h, read-out: Suppression of cytokine production, Perforin (IC50), K562-CD19 stimulation, 72 h",> 10 µM
same,IC50,"CD19 CAR T cells; 72 h, read-out: Suppression of cytokine production, Perforin (IC50), KIP-1 stimulation, 72 h",2.11 µM
same,IC50,"CD19 CAR T cells; 72 h, read-out: Suppression of cytokine production, TNFa (IC50), CD3/CD28 stimulation, 72 h",0.793 µM
same,IC50,"CD19 CAR T cells; 72 h, read-out: Suppression of cytokine production, TNFa (IC50), K562-CD19 stimulation, 72 h",7.23 µM
same,IC50,"CD19 CAR T cells; 72 h, read-out: Suppression of cytokine production, TNFa (IC50), KIP-1 stimulation, 72 h",2.24 µM
same,"Suppression of cytokine production, IL-6 (IC50)","CD19 CAR T cells; K562-CD19 stimulation, 72 h",Suppress
